In the OPERA property sets (Mansouri et al. 2018):
Converted amounts (≈) assume the structure as drawn.

SMILES	solubility (25 °C) [mM]	also measured
BrC=CBr	34.7 (≈ 6440 µg/mL)	
FC(F)(F)Br	2.15 (≈ 320 µg/mL)	
CF		solubility (20 °C): 667 mM (≈ 22700 µg/mL)
BrC(Br)Br	13.8 (≈ 3490 µg/mL)	
FC(F)F	58.4 (≈ 4090 µg/mL)	
C=C(F)F	197 (≈ 12600 µg/mL)	
CBr	160 (≈ 15200 µg/mL)	
FC(F)(F)C(F)(F)Cl	0.382 (≈ 59 µg/mL)	
FC(F)=C(F)F	1.58 (≈ 158 µg/mL)	
ClCCl	153 (≈ 13000 µg/mL)	
CC(Cl)CCl (stereo not drawn)	24.8 (≈ 2800 µg/mL)	
FC(Cl)Cl	183 (≈ 18800 µg/mL)	
ClC(Cl)(Cl)Cl	5.16 (≈ 793 µg/mL)	
FC(F)Cl	32 (≈ 2770 µg/mL)	
Clc1ccccc1	4.42 (≈ 498 µg/mL)	
FC(F)(F)F	0.214 (≈ 18.8 µg/mL)	
CI		solubility (20 °C): 97.2 mM (≈ 13800 µg/mL)
CC(F)F		solubility (21 °C): 48.5 mM (≈ 3200 µg/mL)
